Patent US20240358693A1, “METHODS OF TREATING PAIN” (Aisa Pharma, Inc., priority 2023, published 2024)

System: participants with SSc-RP
Assay: Average duration of weekly RP attacks (minutes)
Assay type: in vivo, human
From the text: The absolute change in average duration of weekly RP attacks from baseline to the end of each dosing period was and will be a secondary outcome variable. The sponsor-developed participant-informed diary was and will be used to record data. Average duration of weekly RP attacks is defined as the total duration of RP attacks divided by total number of RP attacks within the last 7 days of each dosing period. Total duration of RP attacks during the last 7 days of screening period divided by the total number of RP attacks will be used as baseline for the analysis of all periods. The variable will be calculated similar to frequency data as before.

[1] = Pooled Cilnidipine 20 mg and Cilnidipine 20 mg + Tadalafil 5 mg, Excluding Outliers, by Baseline RCS, subgroup 2, ITT Population - Part A
[2] = Pooled Cilnidipine 20 mg and Cilnidipine 20 mg + Tadalafil 5 mg, ITT Part A
[3] = Pooled Cilnidipine 20 mg and Cilnidipine 20 mg + Tadalafil 5 mg, by Baseline RCS, subgroup 1, ITT Population - Part A
[4] = Pooled Cilnidipine 20 mg and Cilnidipine 20 mg + Tadalafil 5 mg, by Baseline RCS, subgroup 2, ITT Population - Part A
[5] = Pooled Cilnidipine, n=3, Excluding Outliers, ITT Part A
[6] = Pooled Cilnidipine, n=3, ITT Part A
[7] = Pooled Cilnidipine, Baseline RCS subgroup 1 (unnamed), ITT Part A
[8] = Pooled Cilnidipine, Excluding Outliers, Baseline RCS subgroup 1 (unnamed), ITT Part A
[9] = Pooled Cilnidipine, Excluding Outliers, ITT Population - Part A
[10] = Pooled Cilnidipine, Excluding Outliers, by Baseline RCS, subgroup 1, ITT Population - Part A
[11] = Pooled Cilnidipine, by Baseline RCS, subgroup 1, ITT Population - Part A

COCCOC(=O)C1=C(C)NC(C)=C(C(=O)OC/C=C/c2ccccc2)C1c1cccc([N+](=O)[O-])c1 (centres unmarked) [Cilnidipine, cilnidipine]
Average Duration of Weekly RP Attacks (All Attacks) Change from Baseline, Median [1]: -19.09 min | Average Duration of Weekly RP Attacks (All Attacks) Percent Change from Baseline, Mean [1]: −23.33% | Average Duration of Weekly RP Attacks (All Attacks) Percent Change from Baseline, Median [1]: −23.33% | Average Duration of Weekly RP Attacks (All Attacks), Mean [1]: 62.73 min | Average Duration of Weekly RP Attacks (All Attacks), Median [1]: 62.73 min | Average Duration of Weekly RP Attacks (All Attacks) Change from Baseline, Mean [2]: -4.77 min | Average Duration of Weekly RP Attacks (All Attacks) Change from Baseline, Median [2]: -2.73 min | Average Duration of Weekly RP Attacks (All Attacks) Percent Change from Baseline, Mean [2]: −13.86% | Average Duration of Weekly RP Attacks (All Attacks) Percent Change from Baseline, Median [2]: −2.74% | Average Duration of Weekly RP Attacks (All Attacks), Mean [2]: 27.61 min | Average Duration of Weekly RP Attacks (All Attacks), Median [2]: 22.36 min | Average Duration of Weekly RP Attacks (All Attacks) Change from Baseline, Mean [3]: 0.00 min | Average Duration of Weekly RP Attacks (All Attacks) Change from Baseline, Median [3]: 2.16 min | Average Duration of Weekly RP Attacks (All Attacks) Percent Change from Baseline, Mean [3]: −10.70% | Average Duration of Weekly RP Attacks (All Attacks) Percent Change from Baseline, Median [3]: 17.86% | Average Duration of Weekly RP Attacks (All Attacks), Mean [3]: 15.91 min | Average Duration of Weekly RP Attacks (All Attacks), Median [3]: 14.27 min | Average Duration of Weekly RP Attacks (All Attacks) Change from Baseline, Mean [4]: -19.09 min | Average Duration of Weekly RP Attacks (All Attacks) Change from Baseline, Median [4]: -19.09 min | Average Duration of Weekly RP Attacks (All Attacks) Percent Change from Baseline, Mean [4]: −23.33% | Average Duration of Weekly RP Attacks (All Attacks) Percent Change from Baseline, Median [4]: −23.33% | Average Duration of Weekly RP Attacks (All Attacks), Mean [4]: 62.73 min | Average Duration of Weekly RP Attacks (All Attacks), Median [4]: 62.73 min | Duration (Pooled Cilnidipine (n = 7)): 20% | Average Duration of Weekly Symptomatic RP Attacks, Change from Baseline, Mean [5]: -7.67 min | Average Duration of Weekly Symptomatic RP Attacks, Change from Baseline, Median [5]: -10.33 min | Average Duration of Weekly Symptomatic RP Attacks, Mean [5]: 21.70 min | Average Duration of Weekly Symptomatic RP Attacks, Median [5]: 30.45 min | Average Duration of Weekly Symptomatic RP Attacks, Percent Change from Baseline, Mean [5]: −32.23% | Average Duration of Weekly Symptomatic RP Attacks, Percent Change from Baseline, Median [5]: −34.60% | Average Duration of Weekly Symptomatic RP Attacks, Change from Baseline, Mean [6]: -7.67 min | Average Duration of Weekly Symptomatic RP Attacks, Change from Baseline, Median [6]: -10.33 min | Average Duration of Weekly Symptomatic RP Attacks, Mean [6]: 21.70 min | Average Duration of Weekly Symptomatic RP Attacks, Median [6]: 30.45 min | Average Duration of Weekly Symptomatic RP Attacks, Percent Change from Baseline, Mean [6]: −32.23% | Average Duration of Weekly Symptomatic RP Attacks, Percent Change from Baseline, Median [6]: −34.60% | Average Duration of Weekly Symptomatic RP Attacks, Change from Baseline, Mean [7]: -7.67 min | Average Duration of Weekly Symptomatic RP Attacks, Change from Baseline, Median [7]: -10.33 min | Average Duration of Weekly Symptomatic RP Attacks, Mean [7]: 21.70 min | Average Duration of Weekly Symptomatic RP Attacks, Median [7]: 30.45 min | Average Duration of Weekly Symptomatic RP Attacks, Percent Change from Baseline, Mean [7]: −32.23% | Average Duration of Weekly Symptomatic RP Attacks, Percent Change from Baseline, Median [7]: −34.60% | Average Duration of Weekly Symptomatic RP Attacks, Change from Baseline, Mean [8]: -7.67 min | Average Duration of Weekly Symptomatic RP Attacks, Change from Baseline, Median [8]: -10.33 min | Average Duration of Weekly Symptomatic RP Attacks, Mean [8]: 21.70 min | Average Duration of Weekly Symptomatic RP Attacks, Median [8]: 30.45 min | Average Duration of Weekly Symptomatic RP Attacks, Percent Change from Baseline, Mean [8]: −32.23% | Average Duration of Weekly Symptomatic RP Attacks, Percent Change from Baseline, Median [8]: −34.60% | Average Duration of Weekly RP Attacks (All Attacks) Change from Baseline, Mean [9]: -3.55 min | Average Duration of Weekly RP Attacks (All Attacks) Change from Baseline, Median [9]: -7.63 min | Average Duration of Weekly RP Attacks (All Attacks) Percent Change from Baseline, Mean [9]: −23.71% | Average Duration of Weekly RP Attacks (All Attacks) Percent Change from Baseline, Median [9]: −21.20% | Average Duration of Weekly RP Attacks (All Attacks), Mean [9]: 21.66 min | Average Duration of Weekly RP Attacks (All Attacks), Median [9]: 30.45 min | Average Duration of Weekly RP Attacks (All Attacks) Change from Baseline, Mean [10]: -3.55 min | Average Duration of Weekly RP Attacks (All Attacks) Change from Baseline, Median [10]: -7.63 min | Average Duration of Weekly RP Attacks (All Attacks) Percent Change from Baseline, Mean [10]: −23.71% | Average Duration of Weekly RP Attacks (All Attacks) Percent Change from Baseline, Median [10]: −21.20% | Average Duration of Weekly RP Attacks (All Attacks), Mean [10]: 21.66 min | Average Duration of Weekly RP Attacks (All Attacks), Median [10]: 30.45 min | Average Duration of Weekly RP Attacks (All Attacks) Change from Baseline, Mean (Pooled Cilnidipine, ITT Part A): -3.55 min | Average Duration of Weekly RP Attacks (All Attacks) Change from Baseline, Median (Pooled Cilnidipine, ITT Part A): -7.63 min | Average Duration of Weekly RP Attacks (All Attacks) Percent Change from Baseline, Mean (Pooled Cilnidipine, ITT Part A): −23.71% | Average Duration of Weekly RP Attacks (All Attacks) Percent Change from Baseline, Median (Pooled Cilnidipine, ITT Part A): −21.20% | Average Duration of Weekly RP Attacks (All Attacks), Mean (Pooled Cilnidipine, ITT Part A): 21.66 min | Average Duration of Weekly RP Attacks (All Attacks), Median (Pooled Cilnidipine, ITT Part A): 30.45 min | Average Duration of Weekly RP Attacks (All Attacks) Change from Baseline, Mean [11]: -3.55 min | Average Duration of Weekly RP Attacks (All Attacks) Change from Baseline, Median [11]: -7.63 min | Average Duration of Weekly RP Attacks (All Attacks) Percent Change from Baseline, Mean [11]: −23.71% | Average Duration of Weekly RP Attacks (All Attacks) Percent Change from Baseline, Median [11]: −21.20% | Average Duration of Weekly RP Attacks (All Attacks), Mean [11]: 21.66 min | Average Duration of Weekly RP Attacks (All Attacks), Median [11]: 30.45 min | duration of Raynaud attacks, direction of change (cilnidipine or cilnidipine plus tadalafil (n=7), tadalafil monotherapy (n=2)): decrease greater than that seen in placebo treated patients | patients in whom reduction in duration exceeded a 25% threshold (cilnidipine or cilnidipine plus tadalafil treated patients): 4 of 7
